Blank lines part the entries; values can stand above or below the compound they belong to.
Experiments:
[1] = target: TEAD1-Dendra2 fusion protein (mouse) (UniProt P30051)
[2] = target: Dendra2
[3] = target: TEAD1-Dendra2 fusion protein (mouse) (UniProt P30051); remark: listed apart in the source
[4] = test system: VGLL4-mediated TEAD1 degradation; experiment: VGLL4-mediated TEAD1 degradation in co-transfected 293T cells (immunoblot); assay type: cell-based; conditions: 293T cells co-transfected with TEAD1 and VGLL4, inhibitors for 6 hours
Method: HA-VGLL4 was cloned downstream of TetO promoter. pEF1α::rtTA was used to express rtTA. The expression of HA-VGLL4 will be activated in the presence of both Dox and rtTA. […] 293T cells were co-transfected with pEF1α::rtTA and pTetO::HA-Vgll4. Twenty-four (24) hours after transfection, cells were treated with […] Dox for different hours. Immunoblotting was carried out to detect the expression of HA-VGLL4. […] Mouse Tead1 specific primers were used to measure relative Tead1-Dendra2 mRNA level by qRT-PCR. FIG. 8D depicts an immunoblot showing TEAD1 degradation is dependent on cysteine proteases and is independent of the proteasome. 293T cells were first co-transfected with TEAD1^fb and Vgll4-GFP plasmids. 1 day after transfection, cells were treated with indicated inhibitors for 6 hours. Dimethyl sulfoxide (DMSO, 0.1%) was used as control vehicle. β-tubulin was used as loading control.
Major pathways for protein degradation can include the proteasome and cysteine, serine, and threonine peptidases. To determine if these candidate pathways are involved in VGLL4-mediated TEAD1 degradation, the effect of MG132 (a universal proteasome inhibitor (Lee et al., 1998)), leupeptin (an inhibitor of serine and threonine peptidases (Umezawa, 1976)) and E64 (an inhibitor specific to cysteine proteases (Barrett et al., 1982)) on VGLL4-mediated TEAD1 degradation was studied.

[5] = test system: TEAD1-Dendra2; experiment: pulse-labeled TEAD1-Dendra2 live cell imaging in 293T cells; assay type: cell-based; conditions: photoconverted TEAD1-Dendra2, Dox-induced VGLL4
Method: (§1) FIG. 7A is an immunoblot showing VGLL4 overexpression decreased TEAD1 protein level. Different doses of TEAD1 plasmids (indicated in μg) were co-transfected with 1.6 μg VGLL4-GFP plasmid. Cells were collected for western blot 24 hours after transfection. FIGS. 7B-7C show the generation and validation of TEAD1-Dendra2 construct. Tead1-Dendra2 plasmid was transfected into 293T cells. Western blot confirmed expression of TEAD1-Dendra2 fusion protein (FIG. 7B). TEAD1-Dendra2 merge fusion protein was green before illumination with 405 nm light. […] Cells were analyzed at the indicated time points. […] FIG. 7E is a graph showing the quantification of TEAD1-Dendra2 protein levels in FIG. 7D. *P<0.05. n=3. […] Relative red fluorescence intensity (RFI) was monitored for 20 minutes by taking one image per minute. n=6. […] Twenty-four (24) hours after transfection, cells were treated with Dox for the indicated number of hours, when cell extracts were analyzed for Firefly and Renilla luciferase activity. […]
DOX-induced VGLL4 expression was combined with live cell imaging of TEAD1-Dendra2 to specifically probe the effect of VGLL4 on TEAD1 stability. […] In the absence of VGLL4, TEAD1-Dendra2 protein fluorescence intensity dropped by 10% during the first 10 minutes, and then became relatively stable. […]

[6] = test system: TEAD1-YAP transcriptional activity; experiment: 8xGTIIC-Luci luciferase reporter assay in 293T cells with DOX-induced VGLL4; assay type: cell-based
Method: as §1
The data indicates an additional mechanism, in which VGLL4 binding to TEAD1 promotes its degradation and thereby reduces the amount available to interact with YAP. To test additional mechanisms, the TEAD1 luciferase reporter 8xGTIIC-Luci (Dupont et al., 2011) was used as a read out of TEAD1-YAP transcriptional activity. […]

[7] = test system: high salt diet induced heart failure; conditions: Cheng et al., 2008; cited from earlier work
[8] = test system: myocardial infarction; conditions: Dong et al., 2007; cited from earlier work
[9] = target: His-TEAD1[211-427] (recombinant murine TEAD1 residues 211-427 with polyhistidine tag, from E. coli) (mouse) (UniProt P30051); experiment: photonic crystal nanobeam sensor, His-TEAD1[211-427] immobilized, curve fitted to the Langmuir equation
[10] = clinical testing, Chen et al., 2013; cited from earlier work

steady-state TEAD1-Dendra2 protein level after Dox (immunoblot) [1]: 50% | red fluorescence intensity of photoconverted Dendra2 (time lapse imaging) [2]: 5% | red fluorescence intensity of photoconverted TEAD1-Dendra2 (time lapse imaging) [3]: 18%
Compound: HA-VGLL4 (doxycycline-inducible, pTetO::HA-VGLL4)

Compound: CC(C)C[C@H](NC(=O)[C@H]1O[C@@H]1C(=O)O)C(=O)NCCCCN=C(N)N (relative stereo) [E64, L-trans-Epoxysuccinyl-leucylamido(4-guanidino)butane]
VGLL4-mediated reduction of TEAD1 steady-state levels [4]: reduced VGLL4-mediated reduction of TEAD1 steady-state levels | destabilizing effect of VGLL4 on TEAD1-Dendra2 [5]: reduced the destabilizing effect of VGLL4 on TEAD1-Dendra2 | reduction of TEAD1 transcriptional activity caused by VGLL4 induction [6]: did not completely abrogate | luciferase reporter activity ([6]; 8 hours after DOX treatment, P<0.05): significantly increased reporter activity | high salt diet induced heart failure [7]: attenuated high salt diet induced heart failure | beneficial effect in myocardial infarction model [8]: did not show a beneficial effect

Kd [9]: 3.1 nM
Compound: synthetic non-acetylated VGLL4 TDU domain peptide with V5 epitope (from UniProt Q14135-4)

Compound: CC(=O)N[C@@H](CC(C)C)C(=O)N[C@@H](CC(C)C)C(=O)N[C@H](C=O)CCCNC(=N)N [leupeptin]
VGLL4-mediated reduction of TEAD1 steady-state levels [4]: reduced VGLL4-mediated reduction of TEAD1 steady-state levels

Compound: CCOC(=O)[C@H]1O[C@@H]1C(=O)N[C@@H](CC(C)C)C(=O)NCCC(C)C [E64d]
safety profile [10]: good safety profile
